In article PMC13600255 (Journal of the American Chemical Society, 2025):
Entries after “also recorded” stand apart in the source; their conditions may differ. Read-outs that look alike come from different tables or passages of the source.

Legend:
hSERT = hSERT (Homo sapiens, UniProt P31645); type: cell-based; conditions: for IC50: read-out: IC50, hSERT (uptake inhibition, APP+), hSERT-HEK cells, fluorescent substrate APP+, n = 4
rat VMAT2 (rVMAT2) = rat VMAT2 (rVMAT2) (Rattus norvegicus, UniProt Q01827); experiment: [3H]5-HT uptake inhibition in rat brain synaptic vesicular fraction; type: biochemical
Chain of rat VMAT2 (rVMAT2) (Q01827 whole entry): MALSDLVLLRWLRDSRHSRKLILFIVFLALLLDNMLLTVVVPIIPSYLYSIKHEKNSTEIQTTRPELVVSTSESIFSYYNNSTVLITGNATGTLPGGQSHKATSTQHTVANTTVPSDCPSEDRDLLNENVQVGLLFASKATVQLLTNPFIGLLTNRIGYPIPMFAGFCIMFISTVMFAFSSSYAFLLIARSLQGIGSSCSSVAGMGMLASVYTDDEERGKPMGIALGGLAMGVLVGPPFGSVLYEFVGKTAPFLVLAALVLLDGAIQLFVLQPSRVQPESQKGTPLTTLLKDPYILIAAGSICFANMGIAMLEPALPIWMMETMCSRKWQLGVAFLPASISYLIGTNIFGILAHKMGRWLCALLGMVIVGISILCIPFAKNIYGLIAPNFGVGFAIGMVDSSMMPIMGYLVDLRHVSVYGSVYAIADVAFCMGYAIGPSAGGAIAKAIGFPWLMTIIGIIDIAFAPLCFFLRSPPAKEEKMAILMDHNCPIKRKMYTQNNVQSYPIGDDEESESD

SERT [1] = molecular target: SERT (Rattus norvegicus, UniProt P31652); experiment: [3H]5-HT release from rat brain synaptosomes via SERT; type: biochemical; conditions: for Emax: read-out: [3H]5-HT Release % Emax via SERT
Chain of SERT (Rattus norvegicus, UniProt P31652) (P31652 whole entry): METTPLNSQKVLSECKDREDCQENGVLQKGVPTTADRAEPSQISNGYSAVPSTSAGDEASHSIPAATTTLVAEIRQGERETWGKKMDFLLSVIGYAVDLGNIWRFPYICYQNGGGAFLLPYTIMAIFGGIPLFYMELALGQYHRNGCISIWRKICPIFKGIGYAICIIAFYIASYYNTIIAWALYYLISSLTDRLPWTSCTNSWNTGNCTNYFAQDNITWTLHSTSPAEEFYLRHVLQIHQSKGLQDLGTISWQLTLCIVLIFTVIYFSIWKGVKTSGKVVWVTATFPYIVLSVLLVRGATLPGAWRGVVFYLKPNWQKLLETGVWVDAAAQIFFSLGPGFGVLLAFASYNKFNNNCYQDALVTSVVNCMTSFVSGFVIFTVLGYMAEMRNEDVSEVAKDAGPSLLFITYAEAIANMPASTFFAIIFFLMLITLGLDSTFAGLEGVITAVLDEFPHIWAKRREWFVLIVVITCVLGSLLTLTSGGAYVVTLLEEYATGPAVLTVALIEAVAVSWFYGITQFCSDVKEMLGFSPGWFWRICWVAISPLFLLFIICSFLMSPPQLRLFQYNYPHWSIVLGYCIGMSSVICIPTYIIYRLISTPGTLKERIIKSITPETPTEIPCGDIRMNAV

hVMAT2 = hVMAT2 (Homo sapiens, UniProt Q05940); experiment: FFN206 fluorescent substrate uptake inhibition in hVMAT2-HEK cells; type: cell-based
Chain of hVMAT2 (Q05940 whole entry): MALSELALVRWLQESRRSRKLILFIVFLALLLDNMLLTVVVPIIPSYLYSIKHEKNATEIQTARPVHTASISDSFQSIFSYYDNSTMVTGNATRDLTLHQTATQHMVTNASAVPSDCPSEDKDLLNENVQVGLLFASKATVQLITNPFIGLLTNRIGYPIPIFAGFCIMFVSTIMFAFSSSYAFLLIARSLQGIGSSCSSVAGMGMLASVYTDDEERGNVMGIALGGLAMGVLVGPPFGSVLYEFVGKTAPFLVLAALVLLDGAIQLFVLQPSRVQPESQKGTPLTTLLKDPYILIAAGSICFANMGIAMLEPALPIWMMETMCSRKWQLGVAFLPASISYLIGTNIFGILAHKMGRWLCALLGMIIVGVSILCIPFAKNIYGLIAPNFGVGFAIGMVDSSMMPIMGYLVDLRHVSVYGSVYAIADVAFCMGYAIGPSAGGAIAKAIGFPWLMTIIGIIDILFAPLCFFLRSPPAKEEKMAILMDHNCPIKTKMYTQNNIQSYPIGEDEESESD

VMAT2 = VMAT2 (Rattus norvegicus, UniProt Q01827); experiment: [3H]5-HT release from rat brain synaptic vesicles via VMAT2; type: biochemical; conditions: for [3H]5-HT Release % Emax via VMAT2: rat brain vesicular fraction, 5-HT control set as Emax = 100%; for Emax: read-out: [3H]5-HT Release % Emax via VMAT2; for Concentration at which [3H]5-HT release exceeds Emax of 30%: rat brain synaptic vesicles
Chain of VMAT2 (Q01827 whole entry): as the sequence (Q01827 whole entry) above

rat SERT (rSERT) = rat SERT (rSERT) (Rattus norvegicus, UniProt P31652); experiment: [3H]5-HT uptake inhibition in rat brain synaptosomes; type: biochemical; conditions: for IC50: rat brain synaptosomes
Chain of rat SERT (rSERT) (P31652 whole entry): as the sequence (P31652 whole entry) above

mice [2] = experiment: Catalepsy bar test in mice; type: in vivo, mouse
mice [3] = experiment: Open field locomotor activity test in mice; type: in vivo, mouse; conditions: s.c.; for Locomotor activity / sedation in open field test: dose-response
[4] = Pharmacokinetics in mice, estimated free drug concentration in brain; type: in vivo, mouse; conditions: mice, 50 mg/kg, s.c.
NET = conditions: read-out: EC50, NET (release); synaptosomes; cited from earlier work
mouse VMAT2 (mVMAT2) = mouse VMAT2 (mVMAT2) (Mus musculus, UniProt Q8BRU6); experiment: FFN200 two-photon imaging of VMAT2 function in acute mouse brain slices; type: cell-based; conditions: 2 μM for 30 minutes, FFN200 10 μM, dorsal striatum
Chain of mouse VMAT2 (mVMAT2) (Q8BRU6 whole entry): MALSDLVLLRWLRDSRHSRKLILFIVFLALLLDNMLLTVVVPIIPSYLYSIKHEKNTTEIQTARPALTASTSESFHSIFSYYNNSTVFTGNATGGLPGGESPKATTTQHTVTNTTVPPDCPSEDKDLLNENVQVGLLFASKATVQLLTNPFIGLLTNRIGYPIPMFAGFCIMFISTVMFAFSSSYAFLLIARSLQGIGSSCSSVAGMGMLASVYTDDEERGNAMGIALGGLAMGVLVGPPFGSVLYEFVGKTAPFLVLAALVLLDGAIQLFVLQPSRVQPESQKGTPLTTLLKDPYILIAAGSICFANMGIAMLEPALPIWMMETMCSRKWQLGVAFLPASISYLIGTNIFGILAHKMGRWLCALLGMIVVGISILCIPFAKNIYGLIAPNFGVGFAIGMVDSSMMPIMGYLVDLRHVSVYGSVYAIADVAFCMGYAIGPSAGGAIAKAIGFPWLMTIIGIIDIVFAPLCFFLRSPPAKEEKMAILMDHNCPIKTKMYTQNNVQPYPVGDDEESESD

hOCT2 = molecular target: T1, hOCT2 (Homo sapiens, UniProt O15244); experiment: ASP+ fluorescent substrate uptake inhibition at OCT2; type: cell-based
T1 sequence (O15244 1-555): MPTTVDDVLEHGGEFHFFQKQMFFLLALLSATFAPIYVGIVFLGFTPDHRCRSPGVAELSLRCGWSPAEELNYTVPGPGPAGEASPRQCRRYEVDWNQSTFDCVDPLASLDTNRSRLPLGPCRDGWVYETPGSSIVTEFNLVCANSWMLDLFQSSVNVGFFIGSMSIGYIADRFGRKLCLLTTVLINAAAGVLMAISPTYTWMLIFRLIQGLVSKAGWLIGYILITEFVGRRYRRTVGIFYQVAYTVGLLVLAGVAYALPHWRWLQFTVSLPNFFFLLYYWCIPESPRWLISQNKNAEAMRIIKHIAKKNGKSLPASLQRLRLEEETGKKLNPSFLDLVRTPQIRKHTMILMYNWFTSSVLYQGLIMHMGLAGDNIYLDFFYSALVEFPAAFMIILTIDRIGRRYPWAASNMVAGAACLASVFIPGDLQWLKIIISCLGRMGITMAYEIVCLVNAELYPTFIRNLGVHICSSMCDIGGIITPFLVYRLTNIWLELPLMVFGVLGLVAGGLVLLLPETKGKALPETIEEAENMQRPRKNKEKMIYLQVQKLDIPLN

humans = conditions: therapeutic doses, treated for dyskinesias; cited from earlier work
SERT [5] = molecular target: SERT (Mus musculus, UniProt Q60857); experiment: SERTlight two-photon imaging of SERT function in acute mouse brain slices; type: cell-based
Chain of SERT (Mus musculus, UniProt Q60857) (Q60857 whole entry): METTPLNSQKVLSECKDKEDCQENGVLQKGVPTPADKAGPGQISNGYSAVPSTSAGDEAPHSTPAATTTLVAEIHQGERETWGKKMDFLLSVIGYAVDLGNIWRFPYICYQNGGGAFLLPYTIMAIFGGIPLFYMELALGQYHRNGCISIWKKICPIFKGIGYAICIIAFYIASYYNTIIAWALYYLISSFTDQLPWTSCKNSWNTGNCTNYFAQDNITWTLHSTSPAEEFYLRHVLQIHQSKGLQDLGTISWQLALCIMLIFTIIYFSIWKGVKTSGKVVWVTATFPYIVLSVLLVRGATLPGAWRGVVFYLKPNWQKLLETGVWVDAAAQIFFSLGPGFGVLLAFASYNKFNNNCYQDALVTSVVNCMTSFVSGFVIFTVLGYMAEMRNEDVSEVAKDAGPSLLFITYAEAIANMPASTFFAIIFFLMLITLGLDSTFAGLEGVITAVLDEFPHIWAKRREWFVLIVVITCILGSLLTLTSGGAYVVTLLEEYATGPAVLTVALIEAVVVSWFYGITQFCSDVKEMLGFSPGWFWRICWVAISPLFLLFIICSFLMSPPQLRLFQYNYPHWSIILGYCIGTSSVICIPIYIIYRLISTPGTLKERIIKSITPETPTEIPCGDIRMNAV

[6] = read-out: Uptake Inhibition at VMAT2 IC50, [3H]5-HT (rVMAT2), rat brain synaptic vesicles
[7] = rat brain synaptosomes, n = 3, active releaser: EC50 < 10 μM and Emax > 30%
[8] = read-out: IC50, hVMAT2 (uptake inhibition, FFN206), hVMAT2-HEK cells, fluorescent substrate FFN206, n = 4
[9] = read-out: [3H]5-HT Release EC50 ± SD via VMAT2
[10] = read-out: Uptake Inhibition at SERT IC50, [3H]5-HT (rSERT)
[11] = read-out: [3H]5-HT Uptake Inhibition IC50 ± SD, SERT, n = 3

Chain of hSERT (P31645 whole entry): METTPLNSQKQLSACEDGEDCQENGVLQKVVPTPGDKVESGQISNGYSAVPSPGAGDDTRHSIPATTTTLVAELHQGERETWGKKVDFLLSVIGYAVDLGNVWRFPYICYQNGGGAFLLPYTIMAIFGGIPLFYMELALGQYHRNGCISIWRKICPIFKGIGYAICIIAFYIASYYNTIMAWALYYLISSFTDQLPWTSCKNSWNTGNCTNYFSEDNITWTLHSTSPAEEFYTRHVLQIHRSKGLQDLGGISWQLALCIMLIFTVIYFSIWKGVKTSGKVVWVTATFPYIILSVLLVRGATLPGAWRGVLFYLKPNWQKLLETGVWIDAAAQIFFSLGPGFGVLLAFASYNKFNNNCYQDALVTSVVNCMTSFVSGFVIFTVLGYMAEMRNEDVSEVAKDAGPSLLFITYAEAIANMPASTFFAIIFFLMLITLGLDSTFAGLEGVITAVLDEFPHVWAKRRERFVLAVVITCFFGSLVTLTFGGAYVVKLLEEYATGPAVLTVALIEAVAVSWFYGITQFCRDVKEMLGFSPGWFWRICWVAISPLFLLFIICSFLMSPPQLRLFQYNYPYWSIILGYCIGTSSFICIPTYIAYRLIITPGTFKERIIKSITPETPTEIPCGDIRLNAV

## CCC1CC2CC3c4c(c5cc(O)ccc5n4C)CCN(C2)C13 (stereo not shown) [N-methyl-noribogaine]
hSERT
  IC50: 59 nM
Rat VMAT2 (rVMAT2); [6]
  IC50: 239 nM
SERT [1]; rat brain synaptosomes, n = 3
  [3H]5-HT Release % Emax via SERT: < 30%
SERT [1]; [7]
  [3H]5-HT Release EC50 ± SD via SERT: inactive
hVMAT2; [8]
  IC50: 170 nM
VMAT2
  [3H]5-HT Release % Emax via VMAT2: 32%
VMAT2; [9]
  EC50: 219 ± 36 nM
Rat SERT (rSERT); [10]
  IC50: 14 nM
Rat SERT (rSERT); [11]
  IC50: 13.6 ± 1.2 nM

## CCC1CC2CC3c4c(c5cc(O)ccc5n4CC)CCN(C2)C13 (stereo not shown) [N-ethyl-noribogaine]
hSERT
  IC50: 1860 nM
Rat VMAT2 (rVMAT2); [6]
  IC50: 54 nM
Mice [2]; mice, 50 mg/kg, s.c., 60-minute mark
  Catalepsy in bar test: catalepsy was induced
Mice [2]; mice, s.c., dose-response
  Catalepsy in bar test: induces catalepsy
Mice [2]; mouse, in vivo
  Catalepsy in bar test: lack of catalepsy; also recorded: did not induce catalepsy
SERT [1]; rat brain synaptosomes, n = 3
  [3H]5-HT Release % Emax via SERT: < 30%
SERT [1]; [7]
  [3H]5-HT Release EC50 ± SD via SERT: inactive
hVMAT2; [8]
  IC50: 70 nM
VMAT2
  [3H]5-HT Release % Emax via VMAT2: 31%
VMAT2; [9]
  EC50: 711 ± 254 nM
Rat SERT (rSERT)
  Potency in synaptosomes ([3H]5-HT, rSERT) relative to transfected cells (hSERT): more than 20 fold
Rat SERT (rSERT); [10]
  IC50: 80 nM
Rat SERT (rSERT); [11]
  IC50: 80.1 ± 7.2 nM
Mice [3]; 30 mg/kg
  Locomotion in open field test: completely suppressed locomotion
Mice [3]
  Locomotor activity / sedation in open field test: suppresses locomotor activity
[4]
  Cmax, estimated free drug in the brain: 11 µM

## CC(N)Cc1ccccc1 (stereo not shown) [amphetamine, reference compound]
SERT [1]; rat brain synaptosomes
  [3H]5-HT release from preloaded synaptosomes (qualitative): robust [^3H]5-HT release
SERT [1]
  Emax: 91%
VMAT2
  Emax: 98%

## N-methyl-5-cyano-ibogamine
hSERT
  IC50: 5 nM
Rat VMAT2 (rVMAT2); [6]
  IC50: 1320 nM
SERT [1]; rat brain synaptosomes, n = 3
  [3H]5-HT Release % Emax via SERT: < 30%
SERT [1]; [7]
  [3H]5-HT Release EC50 ± SD via SERT: inactive
hVMAT2; [8]
  IC50: 440 nM
VMAT2
  Concentration at which [3H]5-HT release exceeds Emax of 30%: > 10 µM
  [3H]5-HT Release % Emax via VMAT2: < 30%
Rat SERT (rSERT); [10]
  IC50: 10 nM
Rat SERT (rSERT); [11]
  IC50: 9.8 ± 0.8 nM

## COC(=O)[C@H]1[C@H]2C[C@@H]3c4[nH]c5cc(OC)ccc5c4CCN3C[C@H]2C[C@@H](OC(=O)c2cc(OC)c(OC)c(OC)c2)[C@@H]1OC [reserpine, reference compound]
VMAT2
  Emax: < 30%

## COc1cc2c(cc1OC)[C@H]1C[C@@H](O)[C@H](CC(C)C)CN1CC2 [DTBZ, dihydrotetrabenazine, reference compound]
Mouse VMAT2 (mVMAT2)
  Effect on FFN200 uptake / punctate labeling: attenuated; also recorded: inhibited the labeling pattern

## CC[C@H]1C[C@@H]2C[C@H]3c4[nH]c5ccccc5c4CCN(C2)[C@@H]13 [ibogamine]
Rat VMAT2 (rVMAT2)
  IC50: > 10000 nM
SERT [1]
  [3H]5-HT Release EC50 ± SD via SERT: inactive
  Emax: < 30%
SERT [1]; rat brain synaptosomes
  [3H]5-HT release from preloaded synaptosomes (qualitative): No [^3H]5-HT release was observed
hVMAT2
  IC50: 3010 nM
hOCT2
  IC50: 2000 nM
VMAT2
  [3H]5-HT Release EC50 ± SD via VMAT2: inactive
  Concentration at which [3H]5-HT release exceeds Emax of 30%: > 10 µM
  Emax: < 30%
Rat SERT (rSERT); Uptake Inhibition at SERT IC50, [3H]5-HT (rSERT)
  IC50: 554 nM
Rat SERT (rSERT); [3H]5-HT Uptake Inhibition IC50 ± SD, SERT, n = 3
  IC50: 554 ± 49 nM

## COc1cc2c(cc1OC)C1CC(=O)C(CC(C)C)CN1CC2 (stereo not shown) [tetrabenazine (TBZ), tetrabenazine, reference compound]
humans
  Parkinsonism as an adverse effect, share of subjects: 15–24%
Mice [2]; mice, s.c., dose-response
  Catalepsy in bar test: catalepsy in the bar test in a dose-dependent manner; also recorded: catalepsy can be readily induced
VMAT2
  Emax: < 30%
Mice [3]
  Locomotor activity / sedation in open field test: diminished locomotor activity; also recorded: sedation in the open field test

## CC[C@H]1C[C@@H]2C[C@H]3c4c(c5cc(OC)ccc5n4C)CCN(C2)[C@@H]13 [N-methyl-ibogaine]
hOCT2; read-out: IC50, hOCT2, ASP+ fluorescent substrate
  IC50: 2300 nM

## CCC1CC2CC3c4oc5ccc(O)cc5c4CCN(C2)C13 (stereo not shown) [oxa-noribogaine]
hSERT
  IC50: 900 nM
hVMAT2; [8]
  IC50: 670 nM

## NCCc1c[nH]c2ccc(O)cc12 [serotonin (5-HT), serotonin, reference compound]
VMAT2
  EC50: 585 ± 129 nM
  Emax: 113%

## CN(C)CCCN1c2ccccc2CCc2ccccc21 [imipramine, reference compound]
hSERT
  Selectivity for SERT over VMAT2: > 100 fold

## CC[C@H]1C[C@@H]2C[C@H]3c4[nH]c5ccc(C#N)cc5c4CCN(C2)[C@@H]13 [5-cyano-ibogamine]
hSERT
  IC50: 26 nM
Rat VMAT2 (rVMAT2); [6]
  IC50: 9620 nM
SERT [5]; 0.2 μM (200 nM), dorsal striatum
  Effect on SERTlight labeling of 5-HT axons: Marked labeling inhibition; also recorded: marked suppression of SERTlight fluorescent labeling
SERT [5]; 2 μM for 30 minutes, SERTlight 10 μM, SNpr, DS, SSp2/3
  Effect on SERTlight labeling of 5-HT axons: ablated SERTlight probe uptake; also recorded: fully inhibited SERTlight label
SERT [1]; rat brain synaptosomes, n = 3
  [3H]5-HT Release % Emax via SERT: < 30%
SERT [1]; [7]
  [3H]5-HT Release EC50 ± SD via SERT: inactive
hVMAT2; [8]
  IC50: 3340 nM
Mouse VMAT2 (mVMAT2)
  Effect on FFN200 uptake / punctate labeling: no inhibitory effects; also recorded: had no effect on labeling pattern
VMAT2
  Concentration at which [3H]5-HT release exceeds Emax of 30%: > 10 µM
  [3H]5-HT Release % Emax via VMAT2: < 30%
Rat SERT (rSERT); [10]
  IC50: 65 nM
Rat SERT (rSERT); [11]
  IC50: 65.2 ± 5.4 nM

## CCOc1ccc2[nH]c3c(c2c1)CCN1CC2CC(CC)C1C3C2 (stereo not shown) [5-ethoxyibogamine]
hSERT
  IC50: 9030 nM
hVMAT2; ratio of IC50 values, cell-based fluorometry
  Selectivity hVMAT2 over hSERT: more than 100 fold
hVMAT2; [8]
  IC50: 80 nM
